Measurements taken from ChEMBL document CHEMBL2331123, “Deuterated clopidogrel analogues as a new generation of antiplatelet agents” (ACS Med Chem Lett, 2013).

Key:
Rattus norvegicus [1] = test: Inhibition of ADP-induced platelet aggregation in Wistar rat blood at 10 mg/kg, po after 2 hrs by aggregometer analysis relative to vehicle-treated control
Rattus norvegicus [2] = test: Inhibition of ADP-induced platelet aggregation in Wistar rat blood at 10 mg/kg, po after 5 mins by aggregometer analysis relative to vehicle-treated control

Compound	aggregation at 10 mg/kg (Rattus norvegicus [1]) [%]	aggregation at 10 mg/kg (Rattus norvegicus [2]) [%]
COC(=O)C(c1ccccc1Cl)N1CCc2sccc2C1 (stereo not drawn)	60.4	29.4
[3H]C1([3H])c2ccsc2C([3H])([3H])C([3H])([3H])N1C(C(=O)OC)c1ccccc1Cl (stereo not drawn)	50.6	7
[3H]C1([3H])c2sccc2CN(C(C(=O)OC)c2ccccc2Cl)C1([3H])[3H] (stereo not drawn)	49.1	7.3
[3H]C1([3H])c2ccsc2CCN1C(C(=O)OC)c1ccccc1Cl (stereo not drawn)	50.4	12.9
